In US20250100968A1, “BICYCLIC-HETEROCYCLE DERIVATIVES AND RELATED USES” (CENTESSA PHARMACEUTICALS (UK) LIMITED, priority 2022, published 2025) one finds EC50 data, which are given here for 23 molecules.
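Also: agonist activity in CHO cells stably expressing hOX2R, intracellular Ca2+ via Calcium 5 dye fluorescence area over 2 min, buffer-only as 0% and 10 nM orexin A as 100%.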

The assay addresses T1, human orexin type 2 receptor (hOX2R) (Homo sapiens, UniProt O43614).
T1 sequence (O43614 1-444): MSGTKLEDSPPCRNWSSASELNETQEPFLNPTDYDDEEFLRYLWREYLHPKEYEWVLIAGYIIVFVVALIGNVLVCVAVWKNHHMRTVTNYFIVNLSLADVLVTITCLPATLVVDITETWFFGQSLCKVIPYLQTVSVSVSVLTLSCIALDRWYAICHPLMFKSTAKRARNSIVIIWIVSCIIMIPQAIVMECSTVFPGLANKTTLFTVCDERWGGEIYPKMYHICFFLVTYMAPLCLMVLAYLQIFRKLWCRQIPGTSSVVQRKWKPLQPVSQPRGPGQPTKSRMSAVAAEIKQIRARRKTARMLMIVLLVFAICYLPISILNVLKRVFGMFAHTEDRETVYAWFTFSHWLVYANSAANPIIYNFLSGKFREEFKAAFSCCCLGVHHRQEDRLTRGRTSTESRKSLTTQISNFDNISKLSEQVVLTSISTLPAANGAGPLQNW
Put plainly: cell-based.
Experimental: Measurement of orexin type 2 receptor agonist activity. […] After removal of the medium, 50 μl of assay buffer 1 (0.1% bovine serum albumin (Sigma Aldrich), 20 mM HEPES (Molecular Dimensions), 250 mM probenecid (Sigma Aldrich), 1× Calcium 5 dye (Molecular Devices) in Hank's balanced salt solution (Invitrogen)) was added, and the cells were incubated for 60 min under the conditions of 37° C., 5% CO2. A test compound was dissolved in dimethyl sulfoxide (Sigma Aldrich) to 10 mM, and then diluted with assay buffer 2 (20 mM HEPES, Hank's balanced salt solution, 0.1% bovine serum albumin). For the reaction, a test compound solution (10 μl) was added using Fluorescent Imaging Plate Reader TETRA (FLIPR TETRA: manufactured by Molecular Devices), a fluorescence value (excitation wavelength 488 nm, measurement wavelength 570 nm) of each well was measured every one second for 2 min, and the agonist activity was determined using the area of the fluorescence value as an indicator of intracellular Ca^2+ concentration. The agonist activity of the test compound was calculated assuming that the fluorescence value of the well added with only the dilution buffer was 0% and the fluorescence value of the well added with 10 nM human orexin A (Tocris) buffer was 100%.
With `C[C@@](O)(C(=O)N1CC2(CC2)[C@H](NS(=O)(=O)C(F)F)[C@@H]1Cc1cccc(-c2ccccc2)c1F)C1CC1` [compound 75, N-((6S,7S)-5-((S)-2-cyclopropyl-2-hydroxypropanoyl)-6-((2-fluoro-[1,1′-biphenyl]-3-yl)methyl)-5-azaspiro[2.4]heptan-7-yl)-1,1-difluoromethanesulfonamide], the EC50 (in general, the concentration needed to bring the measured effect to its halfway point) lay in the range of 1 to 10 nM. Then `C[C@@H](C#N)C(=O)N1CC2(CC2)[C@H](NS(=O)(=O)C(F)F)[C@@H]1Cc1cccc(-c2cc(F)cc(F)c2)c1F` [compound 70, N-((6S,7S)-5-((S)-2-cyanopropanoyl)-6-((2,3′,5′-trifluoro-[1,1′-biphenyl]-3-yl)methyl)-5-azaspiro[2.4]heptan-7-yl)-1,1-difluoromethanesulfonamide], with 1 to 10 nM; and `O=C(NCC(F)F)N1CC2(CC2)[C@H](NS(=O)(=O)C(F)F)[C@@H]1Cc1cc(F)cc(-c2cc(F)cc(F)c2)c1F` [compound 25, (6S,7S)-N-(2,2-difluoroethyl)-7-((difluoromethyl)sulfonamido)-6-((2,3′,5,5′-tetrafluoro-[1,1′-biphenyl]-3-yl)methyl)-5-azaspiro[2.4]heptane-5-carboxamide], with 0.0631 to 1 nM; and `O=C(NCC(F)F)N1CC2(CC2)[C@H](NS(=O)(=O)C(F)F)[C@@H]1Cc1cccc(-c2cc(F)cc(F)c2)c1F` [compound 28, (6S,7S)-N-(2,2-difluoroethyl)-7-((difluoromethyl)sulfonamido)-6-((2,3′,5′-trifluoro-[1,1′-biphenyl]-3-yl)methyl)-5-azaspiro[2.4]heptane-5-carboxamide], with 0.0631 to 1 nM.

As to `CC(F)(F)CNC(=O)N1CC2(CC2)[C@H](NS(=O)(=O)C(F)F)[C@@H]1Cc1cccc(-c2cc(F)cc(F)c2)c1F` [compound 39, (6S,7S)-7-((difluoromethyl)sulfonamido)-N-(2,2-difluoropropyl)-6-((2,3′,5′-trifluoro-[1,1′-biphenyl]-3-yl)methyl)-5-azaspiro[2.4]heptane-5-carboxamide], the EC50 was in the range of 1 to 10 nM. As for `CC[C@](C)(O)C(=O)N1CC2(CC2)[C@H](NS(=O)(=O)CF)[C@@H]1Cc1cccc(-c2cccc(F)c2)c1F` [compound 33, N-((6S,7S)-6-((2,3′-difluoro-[1,1′-biphenyl]-3-yl)methyl)-5-((S)-2-hydroxy-2-methylbutanoyl)-5-azaspiro[2.4]heptan-7-yl)-1-fluoromethanesulfonamide], the figure is 0.0631 to 1 nM.

Molecule `O=C([C@H]1CCO1)N1CC2(CC2)[C@H](NS(=O)(=O)C2(F)CC2)[C@@H]1Cc1cccc(-c2ccccc2)c1F` [compound 10, 1-fluoro-N-((6S,7S)-6-((2-fluoro-[1,1′-biphenyl]-3-yl)methyl)-5-((R)-oxetane-2-carbonyl)-5-azaspiro[2.4]heptan-7-yl)cyclopropane-1-sulfonamide] yielded an EC50 of 0.0631 to 1 nM.

As for `CC(C)S(=O)(=O)N[C@@H]1[C@H](Cc2cc(F)cc(-c3cc(F)cc(F)c3)c2F)N(C(=O)[C@H]2CCO2)CC12CC2` [compound 20, N-((6S,7S)-5-((R)-oxetane-2-carbonyl)-6-((2,3′,5,5′-tetrafluoro-[1,1′-biphenyl]-3-yl)methyl)-5-azaspiro[2.4]heptan-7-yl)propane-2-sulfonamide], the EC50 lay within 0.0631 to 1 nM. Then `CC[C@](C)(O)C(=O)N1CC2(CC2)[C@H](NS(=O)(=O)C(F)F)[C@@H]1Cc1cccc(-c2cc(F)cc(F)c2)c1F` [compound 78, 1,1-difluoro-N-((6S,7S)-5-((S)-2-hydroxy-2-methylbutanoyl)-6-((2,3′,5′-trifluoro-[1,1′-biphenyl]-3-yl)methyl)-5-azaspiro[2.4]heptan-7-yl)methanesulfonamide], with 1 to 10 nM; and `CC(C)(F)CNC(=O)N1CC2(CC2)[C@H](NS(=O)(=O)C(F)F)[C@@H]1Cc1cccc(-c2cccc(F)c2)c1F` [compound 71, (6S,7S)-6-((2,3′-difluoro-[1,1′-biphenyl]-3-yl)methyl)-7-((difluoromethyl)sulfonamido)-N-(2-fluoro-2-methylpropyl)-5-azaspiro[2.4]heptane-5-carboxamide], with 0.0631 to 1 nM. `C[C@H](CF)NC(=O)N1CC2(CC2)[C@H](NS(=O)(=O)C2(F)CC2)[C@@H]1Cc1cccc(-c2ccccc2)c1F` [compound 86, (6S,7S)-6-((2-fluoro-[1,1′-biphenyl]-3-yl)methyl)-7-((1-fluorocyclopropane)-1-sulfonamido)-N-((R)-1-fluoropropan-2-yl)-5-azaspiro[2.4]heptane-5-carboxamide] showed an EC50 of 0.0631 to 1 nM. Molecule `CC[C@@](C)(O)C(=O)N1CC2(CC2)[C@H](NS(=O)(=O)CF)[C@@H]1Cc1cccc(-c2cccc(F)c2)c1F` [compound 30, N-((6S,7S)-6-((2,3′-difluoro-[1,1′-biphenyl]-3-yl)methyl)-5-((R)-2-hydroxy-2-methylbutanoyl)-5-azaspiro[2.4]heptan-7-yl)-1-fluoromethanesulfonamide] showed an EC50 of 0.0631 to 1 nM. As for `N#C[C@]1(C(=O)N2CC3(CC3)[C@H](NS(=O)(=O)CF)[C@@H]2Cc2cc(F)cc(-c3ccccc3)c2F)C[C@H](F)C1` [compound 89, N-((6S,7S)-5-((1r,3S)-1-cyano-3-fluorocyclobutane-1-carbonyl)-6-((2,5-difluoro-[1,1′-biphenyl]-3-yl)methyl)-5-azaspiro[2.4]heptan-7-yl)-1-fluoromethanesulfonamide], the figure is 1 to 10 nM; as for `C[C@@H](C#N)C(=O)N1CC2(CC2)[C@H](NS(=O)(=O)CF)[C@@H]1Cc1cccc(-c2cc(F)cc(F)c2)c1F` [compound 63, N-((6S,7S)-5-((S)-2-cyanopropanoyl)-6-((2,3′,5′-trifluoro-[1,1′-biphenyl]-3-yl)methyl)-5-azaspiro[2.4]heptan-7-yl)-1-fluoromethanesulfonamide], 1 to 10 nM.

Consider `C[C@@H](F)S(=O)(=O)N[C@@H]1[C@H](Cc2cc(F)cc(-c3ccccc3)c2F)N(C(=O)[C@H]2CCO2)CC12CC2` [compound 55, (S)-N-((6S,7S)-6-((2,5-difluoro-[1,1′-biphenyl]-3-yl)methyl)-5-((R)-oxetane-2-carbonyl)-5-azaspiro[2.4]heptan-7-yl)-1-fluoroethane-1-sulfonamide], for which the EC50 was 1 to 10 nM. `N#C[C@]1(C(=O)N2CC3(CC3)[C@H](NS(=O)(=O)CF)[C@@H]2Cc2cc(F)cc(-c3ccccc3)c2F)C[C@@H](F)C1` [compound 90, N-((6S,7S)-5-((1s,3R)-1-cyano-3-fluorocyclobutane-1-carbonyl)-6-((2,5-difluoro-[1,1′-biphenyl]-3-yl)methyl)-5-azaspiro[2.4]heptan-7-yl)-1-fluoromethanesulfonamide] yielded an EC50 of 1 to 10 nM.

On to `O=C([C@H]1CCO1)N1CC2(CC2)[C@H](NS(=O)(=O)C2(F)CC2)[C@@H]1Cc1cccc(-c2cc(F)cc(F)c2)c1F` [compound 36, 1-fluoro-N-((6S,7S)-5-((R)-oxetane-2-carbonyl)-6-((2,3′,5′-trifluoro-[1,1′-biphenyl]-3-yl)methyl)-5-azaspiro[2.4]heptan-7-yl)cyclopropane-1-sulfonamide], for which the EC50 lay in the range of 0.0631 to 1 nM. Then `C[C@@H](C#N)C(=O)N1CC2(CC2)[C@H](NS(=O)(=O)C(F)F)[C@@H]1Cc1cccc(-c2ccccc2)c1F` [compound 41, N-((6S,7S)-5-((S)-2-cyanopropanoyl)-6-((2-fluoro-[1,1′-biphenyl]-3-yl)methyl)-5-azaspiro[2.4]heptan-7-yl)-1,1-difluoromethanesulfonamide], with 1 to 10 nM; and `C[C@H](F)S(=O)(=O)N[C@@H]1[C@H](Cc2cc(F)cc(-c3cc(F)cc(F)c3)c2F)N(C(=O)[C@H]2CCO2)CC12CC2` [compound 58, (R)-1-fluoro-N-((6S,7S)-5-((R)-oxetane-2-carbonyl)-6-((2,3′,5,5′-tetrafluoro-[1,1′-biphenyl]-3-yl)methyl)-5-azaspiro[2.4]heptan-7-yl)ethane-1-sulfonamide], with 1 to 10 nM; and `O=C([C@@H](O)C1CC1)N1CC2(CC2)[C@H](NS(=O)(=O)C(F)F)[C@@H]1Cc1cccc(-c2cc(F)cc(F)c2)c1F` [compound 32, N-((6S,7S)-5-((S)-2-cyclopropyl-2-hydroxyacetyl)-6-((2,3′,5′-trifluoro-[1,1′-biphenyl]-3-yl)methyl)-5-azaspiro[2.4]heptan-7-yl)-1,1-difluoromethanesulfonamide], with 1 to 10 nM. Then `N#C[C@]1(C(=O)N2CC3(CC3)[C@H](NS(=O)(=O)CF)[C@@H]2Cc2cccc(-c3ccccc3)c2F)C[C@H](F)C1` [compound 54, N-((6S,7S)-5-((1r,3S)-1-cyano-3-fluorocyclobutane-1-carbonyl)-6-((2-fluoro-[1,1′-biphenyl]-3-yl)methyl)-5-azaspiro[2.4]heptan-7-yl)-1-fluoromethanesulfonamide], with 0.0631 to 1 nM; and `C[C@H](CF)NC(=O)N1CC2(CC2)[C@H](NS(=O)(=O)CF)[C@@H]1Cc1cccc(-c2cc(F)cc(F)c2)c1F` [compound 61, (6S,7S)-7-((fluoromethyl)sulfonamido)-N-((R)-1-fluoropropan-2-yl)-6-((2,3′,5′-trifluoro-[1,1′-biphenyl]-3-yl)methyl)-5-azaspiro[2.4]heptane-5-carboxamide], with 0.0631 to 1 nM; and `N#CC1(C(=O)N2CC3(CC3)[C@H](NS(=O)(=O)CF)[C@@H]2Cc2cccc(-c3ccccc3)c2F)COC1` [compound 34, N-((6S,7S)-5-(3-cyanooxetane-3-carbonyl)-6-((2-fluoro-[1,1′-biphenyl]-3-yl)methyl)-5-azaspiro[2.4]heptan-7-yl)-1-fluoromethanesulfonamide], with 0.0631 to 1 nM.
